System: serum lipids and serum lipid hydroperoxide
Test: Pharmacological test method A for anti-hyperlipidemic activity (serum lipids, 2 weeks feeding)
Format: in vivo, male Wistar strain rats
Conditions: for AI [(TC - HDL-C)/(HDL-C)] / HDL-C in serum / LPO in serum / PL in serum / TC in serum / TG in serum: 1% in hyperlipidemic diet, 2 weeks; for AI % of diff. / AI Diff. / HDL-C % of diff. / HDL-C Diff. / LPO % of diff. / LPO Diff. / PL % of diff. / PL Diff. / TC % of diff. / TC Diff. / TG % of diff. / TG Diff.: versus control group
Procedure, shortened: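 Male Wistar rats (100±lg, 10 per group) fed 10 g/day for 2 weeks of a 1% cholesterol/0.5% cholic acid diet, test groups with 1% each of cycloartenol, 24-methylenecycloartanol and cyclobranol. After 16 h fast, aortic blood serum assayed enzymatically/colorimetrically for TC, HDL-C, TG, PL, LPO.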

CC(C)=C(C)CCC(C)C1CCC2(C)C3CCC4C(C)(C)C(OC(=O)c5ccc(O)cc5)CCC45CC35CCC12C (stereo not drawn) [Example 58, cyclobranyl-p-hydroxybenzoate]
AI [(TC - HDL-C)/(HDL-C)]: 1.318
HDL-C in serum: 62.0 mg/dL
LPO in serum: 1.82 nmol/mL
PL in serum: 121.3 mg/dL
TC in serum: 143.7 mg/dL
TG in serum: 26.8 mg/dL
AI % of diff.: -25.4%
AI Diff.: -0.449
HDL-C % of diff.: +3.0%
HDL-C Diff.: +1.8 mg/dl
LPO % of diff.: -28.1%
LPO Diff.: -0.71 nmol/mL
PL % of diff.: -11.3%
PL Diff.: -15.4 mg/dL
TC % of diff.: -13.7%
TC Diff.: -22.9 mg/dL
TG % of diff.: -1.5%
TG Diff.: -0.4 mg/dL

CCCOc1cc(C=CC(=O)OC2CCC34CC35CCC3(C)C(C(C)CCC=C(C)C)CCC3(C)C5CCC4C2(C)C)ccc1O (stereo not drawn) [Example 74, cycloartenyl-4-hydroxy-3-propoxycinnamate]
AI [(TC - HDL-C)/(HDL-C)]: 0.787
HDL-C in serum: 92.4 mg/dL
LPO in serum: 2.09 nmol/mL
PL in serum: 162.1 mg/dL
TC in serum: 165.1 mg/dL
TG in serum: 33.1 mg/dL
AI % of diff.: -21.5%
AI Diff.: -0.215
HDL-C % of diff.: -4.0%
HDL-C Diff.: -3.8 mg/dL
LPO % of diff.: -10.4%
LPO Diff.: -0.24 nmol/mL
PL % of diff.: -10.4%
PL Diff.: -18.8 mg/dL
TC % of diff.: 14.3%
TC Diff.: -27.5 mg/dL
TG % of diff.: -0.3%
TG Diff.: -0.1 mg/dL

COc1ccccc1C(=O)OC1CCC23CC24CCC2(C)C(C(C)CCC=C(C)C)CCC2(C)C4CCC3C1(C)C (stereo not drawn) [Example 13, cycloartenyl-o-methoxybenzoate]
AI [(TC - HDL-C)/(HDL-C)]: 1.388
HDL-C in serum: 60.5 mg/dL
LPO in serum: 1.94 nmol/mL
PL in serum: 122.8 mg/dL
TC in serum: 144.5 mg/dL
TG in serum: 26.2 mg/dL
AI % of diff.: -21.4%
AI Diff.: -0.379
HDL-C % of diff.: +0.5%
HDL-C Diff.: +0.3 mg/dl
LPO % of diff.: -23.3%
LPO Diff.: -0.59 nmol/mL
PL % of diff.: -10.2%
PL Diff.: -13.9 mg/dL
TC % of diff.: -13.3%
TC Diff.: -22.1 mg/dL
TG % of diff.: -3.7%
TG Diff.: -1.0 mg/dL

CCCCC/C=C\C/C=C\CCCCCCCC(=O)OC1CCC23CC24CCC2(C)C(C(C)CCC=C(C)C)CCC2(C)C4CCC3C1(C)C (stereo not drawn) [Example 25, cycloartenyl linolate]
AI [(TC - HDL-C)/(HDL-C)]: 0.705
HDL-C in serum: 92.3 mg/dL
LPO in serum: 1.67 nmol/mL
PL in serum: 144.6 mg/dL
TC in serum: 157.4 mg/dL
TG in serum: 34.0 mg/dL
AI % of diff.: -42.3%
AI Diff.: -0.517
HDL-C % of diff.: +6.7%
HDL-C Diff.: +5.8 mg/dl
LPO % of diff.: -25.6%
LPO Diff.: -0.57 nmol/mL
PL % of diff.: -16.2%
PL Diff.: -28.0 mg/dL
TC % of diff.: -18.1%
TC Diff.: -34.8 mg/dL
TG % of diff.: -6.2%
TG Diff.: -2.3 mg/dL

CC(C)=C(C)CCC(C)C1CCC2(C)C3CCC4C(C)(C)C(OC(=O)c5ccccc5N)CCC45CC35CCC12C (stereo not drawn) [Example 47, cyclobranyl-o-aminobenzoate]
AI [(TC - HDL-C)/(HDL-C)]: 1.811
HDL-C in serum: 53.4 mg/dL
LPO in serum: 2.03 nmol/mL
PL in serum: 140.3 mg/dL
TC in serum: 150.1 mg/dL
TG in serum: 20.4 mg/dL
AI % of diff.: -1.9%
AI Diff.: -0.036
HDL-C % of diff.: -9.0%
HDL-C Diff.: -5.3 mg/dL
LPO % of diff.: -13.2%
LPO Diff.: -0.31 nmol/mL
PL % of diff.: -5.5%
PL Diff.: -8.1 mg/dL
TC % of diff.: -10.2%
TC Diff.: -17.0 mg/dL
TG % of diff.: -17.7%
TG Diff.: -4.4 mg/dL

COc1cc(C(=O)OC2CCC34CC35CCC3(C)C(C(C)CCC(C)=C(C)C)CCC3(C)C5CCC4C2(C)C)ccc1O (stereo not drawn) [Example 37, cyclobranyl-4-hydroxy-3-methoxybenzoate]
AI [(TC - HDL-C)/(HDL-C)]: 0.460
HDL-C in serum: 110.4 mg/dL
LPO in serum: 1.91 nmol/mL
PL in serum: 155.4 mg/dL
TC in serum: 161.2 mg/dL
TG in serum: 31.0 mg/dL
AI % of diff.: -54.1%
AI Diff.: -0.542
HDL-C % of diff.: +14.8%
HDL-C Diff.: +14.2 mg/dl
LPO % of diff.: -18.0%
LPO Diff.: -0.42 nmol/mL
PL % of diff.: -14.1%
PL Diff.: -25.5 mg/dL
TC % of diff.: -16.3%
TC Diff.: -31.4 mg/dL
TG % of diff.: -6.6%
TG Diff.: -2.2 mg/dL

CCOc1cc(C=CC(=O)OC2CCC34CC35CCC3(C)C(C(C)CCC(C)=C(C)C)CCC3(C)C5CCC4C2(C)C)ccc1O (stereo not drawn) [Example 71, cyclobranyl-3-ethoxy-4-hydroxycinnamate]
AI [(TC - HDL-C)/(HDL-C)]: 0.523
HDL-C in serum: 106.0 mg/dL
LPO in serum: 1.96 nmol/mL
PL in serum: 157.7 mg/dL
TC in serum: 161.4 mg/dL
TG in serum: 32.9 mg/dL
AI % of diff.: -47.8%
AI Diff.: -0.479
HDL-C % of diff.: +10.2%
HDL-C Diff.: +9.8 mg/dl
LPO % of diff.: -15.9%
LPO Diff.: -0.37 nmol/mL
PL % of diff.: -12.8%
PL Diff.: -23.2 mg/dL
TC % of diff.: 16.2%
TC Diff.: -31.2 mg/dL
TG % of diff.: -2.8%
TG Diff.: -0.9 mg/dL

CC(C)=CCCC(C)C1CCC2(C)C3CCC4C(C)(C)C(OC(=O)C=Cc5cccc(N)c5)CCC45CC35CCC12C (stereo not drawn) [Example 108, cycloartenyl ester of m-aminocinnamic acid]
AI [(TC - HDL-C)/(HDL-C)]: 3.627
HDL-C in serum: 46.6 mg/dL
LPO in serum: 2.20 nmol/mL
PL in serum: 151.4 mg/dL
TC in serum: 215.6 mg/dL
TG in serum: 29.0 mg/dL
AI % of diff.: -53.7%
AI Diff.: -4.213
HDL-C % of diff.: +26.3%
HDL-C Diff.: +9.7 mg/dl
LPO % of diff.: -21.4%
LPO Diff.: -0.60 nmol/mL
PL % of diff.: -8.6%
PL Diff.: -14.2 mg/dL
TC % of diff.: -33.9%
TC Diff.: -110.6 mg/dL
TG % of diff.: -14.7%
TG Diff.: -5.0 mg/dL

Source: patent publication US4748161A, “Triterpenyl esters of organic acids and hypolipidemic agents composed of them” (Amano Pharmaceutical Co., Ltd., priority 1984, dated 1988)
